Measured values from ChEMBL document CHEMBL4020842, “Discovery of N1-(4-((7-Cyclopentyl-6-(dimethylcarbamoyl)-7 H-pyrrolo[2,3- d]pyrimidin-2-yl)amino)phenyl)- N8-hydroxyoctanediamide as a Novel Inhibitor Targeting Cyclin-dependent Kinase 4/9 (CDK4/9) and Histone Deacetlyase1 (HDAC1) against Malignant Cancer” (J Med Chem, 2018).
pIC50: −log10 of the molar value.

Experiments:
CDK4/Cyclin D3 = CDK4/Cyclin D3 (Homo sapiens, UniProt P11802); assay: Inhibition of recombinant human full length N-terminal GST-tagged CDK4/Cyclin-D3 co-expressed in baculovirus infected sf21 cells using Rb substrate in presence of [gamma33P]ATP after 10 mins by scintillation counting method
Histone deacetylase 1 [1] = target: T1, Histone deacetylase 1 (Homo sapiens, UniProt Q13547); assay: Inhibition of HDAC1 (unknown origin)
Histone deacetylase 1 [2] = target: T1, Histone deacetylase 1; assay: Potency index, ratio of vorinostat IC50 to compound IC50 for HDAC1 (unknown origin)

T1 sequence (Q13547 whole entry): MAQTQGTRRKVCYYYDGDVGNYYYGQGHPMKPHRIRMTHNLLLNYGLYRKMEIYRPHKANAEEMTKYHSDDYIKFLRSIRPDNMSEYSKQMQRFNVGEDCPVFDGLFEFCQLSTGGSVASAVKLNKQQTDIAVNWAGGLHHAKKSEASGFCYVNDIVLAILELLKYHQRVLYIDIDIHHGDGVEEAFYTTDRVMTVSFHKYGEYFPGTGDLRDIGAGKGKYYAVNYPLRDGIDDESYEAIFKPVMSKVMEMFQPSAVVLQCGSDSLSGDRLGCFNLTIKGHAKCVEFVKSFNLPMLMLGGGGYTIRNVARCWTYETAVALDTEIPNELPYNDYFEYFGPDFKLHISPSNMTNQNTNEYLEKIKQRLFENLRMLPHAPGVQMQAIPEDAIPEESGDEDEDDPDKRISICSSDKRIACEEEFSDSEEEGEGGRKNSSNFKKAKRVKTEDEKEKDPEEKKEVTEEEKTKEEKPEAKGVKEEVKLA
Sequence of CDK4/Cyclin D3 (P11802 whole entry): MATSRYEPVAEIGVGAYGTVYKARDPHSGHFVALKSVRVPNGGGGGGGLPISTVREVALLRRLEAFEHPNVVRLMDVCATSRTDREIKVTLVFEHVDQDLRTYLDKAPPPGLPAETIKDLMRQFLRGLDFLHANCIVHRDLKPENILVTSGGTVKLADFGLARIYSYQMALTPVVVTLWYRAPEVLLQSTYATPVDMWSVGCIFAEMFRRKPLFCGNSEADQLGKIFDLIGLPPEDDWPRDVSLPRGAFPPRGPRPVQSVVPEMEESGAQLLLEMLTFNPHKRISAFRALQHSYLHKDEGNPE
Sequence of CDK4/Cyclin D3 (P30281 whole entry, further chain): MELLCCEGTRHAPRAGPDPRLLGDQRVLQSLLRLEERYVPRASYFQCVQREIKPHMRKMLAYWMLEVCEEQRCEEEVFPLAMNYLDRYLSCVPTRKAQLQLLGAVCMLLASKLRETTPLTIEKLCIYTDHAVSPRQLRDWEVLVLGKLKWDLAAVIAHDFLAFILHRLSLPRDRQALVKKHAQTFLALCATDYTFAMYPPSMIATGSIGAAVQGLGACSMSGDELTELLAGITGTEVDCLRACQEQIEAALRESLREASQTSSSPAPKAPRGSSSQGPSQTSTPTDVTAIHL

Row | pIC50 (CDK4/Cyclin D3) | pIC50 (Histone deacetylase 1 [1]) | Ratio IC50 (Histone deacetylase 1 [2]) | Structure (SMILES)
1 | 7.89 | 7.41 | 10 to 100 | CN(C)C(=O)c1cc2cnc(Nc3ccc(N4CCN(C(=O)CCCCCCC(=O)NO)CC4)cn3)nc2n1C1CCCC1
2 | < 5.30 | 8.59 | 10 to 100 | O=C(CCCCCCC(=O)Nc1ccc(Nc2ncc3ncn(C4CCCC4)c3n2)cc1)NO
3 | < 5.30 | < 5.30 | 10 to 100 | COC(=O)CCCCCCC(=O)Nc1ccc(Nc2ncc3ncn(C4CCCC4)c3n2)cc1
4 | < 5.30 | 7.43 | 10 to 100 | CN(C)C(=O)c1cc2cnc(Nc3ccccc3NC(=O)CCCCCCC(=O)NO)nc2n1C1CCCC1
5 | 7.57 |  |  | CCCCCCC(=O)Nc1ccc(Nc2ncc3cc(C(=O)N(C)C)n(C4CCCC4)c3n2)cc1
6 | < 5.30 |  |  | COC(=O)CCCCCCC(=O)NNc1ncc2cc(C(=O)N(C)C)n(C3CCCC3)c2n1
7 | 8.14 |  |  | COC(=O)CCCCCNC(=O)c1ccc(Nc2ncc3cc(C(=O)N(C)C)n(C4CCCC4)c3n2)cc1
8 | 7.03 | 6.37 | 10 to 100 | CN(C)C(=O)c1cc2cnc(Nc3ccc(NC(=O)CCCCCCC(=O)NO)cn3)nc2n1C1CCCC1
9 | 7.96 |  |  | COC(=O)CCCCCCNC(=O)c1ccc(Nc2ncc3cc(C(=O)N(C)C)n(C4CCCC4)c3n2)cc1
10 | 7.62 |  |  | COC(=O)CCCCCCCC(=O)Nc1ccc(Nc2ncc3cc(C(=O)N(C)C)n(C4CCCC4)c3n2)cc1
11 | 7.96 |  |  | CN(C)C(=O)c1cc2cnc(Nc3ccc(C(=O)NCCCCC(=O)NO)cc3)nc2n1C1CCCC1
12 | 8.09 |  |  | COC(=O)CCCCCCCNC(=O)c1ccc(Nc2ncc3cc(C(=O)N(C)C)n(C4CCCC4)c3n2)cc1
13 | 7.80 |  |  | COC(=O)CCCCCCC(=O)Nc1ccc(Nc2ncc3cc(C(=O)N(C)C)n(C4CCCC4)c3n2)cn1
14 | 7.52 | 9.08 | 10 to 100 | CN(C)C(=O)c1cc2cnc(Nc3cccc(NC(=O)CCCCCCC(=O)NO)c3)nc2n1C1CCCC1
15 | 7.59 | 8.80 | 10 to 100 | CN(C)C(=O)c1cc2cnc(Nc3ccc(C(=O)NCCCCCCCC(=O)NO)cc3)nc2n1C1CCCC1
16 | 7.60 |  |  | COC(=O)CCCCCCC(=O)NCc1ccc(Nc2ncc3cc(C(=O)N(C)C)n(C4CCCC4)c3n2)cc1
17 | < 5.30 |  |  | COC(=O)CCCCCCC(=O)Nc1ncc2cc(C(=O)N(C)C)n(C3CCCC3)c2n1
18 | 7.80 | < 5.30 | 10 to 100 | CN(C)C(=O)CCCCCCC(=O)Nc1ccc(Nc2ncc3cc(C(=O)N(C)C)n(C4CCCC4)c3n2)cc1
19 | 7.59 |  |  | COC(=O)CCCCCCC(=O)Nc1cccc(Nc2ncc3cc(C(=O)N(C)C)n(C4CCCC4)c3n2)c1
20 | 7.92 | < 5.30 | 10 to 100 | COC(=O)CCCCCCC(=O)Nc1ccc(Nc2ncc3cc(C(=O)N(C)C)n(C4CCCC4)c3n2)cc1
21 | 7.54 |  |  | CCCCCCCC(=O)Nc1ccc(Nc2ncc3cc(C(=O)N(C)C)n(C4CCCC4)c3n2)cc1

Row | pIC50 (CDK4/Cyclin D3) | pIC50 (Histone deacetylase 1 [1]) | Ratio IC50 (Histone deacetylase 1 [2]) | Structure (SMILES)
22 | 8.00 | < 5.30 | 10 to 100 | CCCCCC(=O)Nc1ccc(Nc2ncc3cc(C(=O)N(C)C)n(C4CCCC4)c3n2)cc1
23 | 7.96 | 7.57 | 10 to 100 | CN(C)C(=O)c1cc2cnc(Nc3ccc(NC(=O)CCCCC(=O)NO)cc3)nc2n1C1CCCC1
24 | 7.89 | < 5.30 | 10 to 100 | COC(=O)CCCCCCC(=O)N1CCN(c2ccc(Nc3ncc4cc(C(=O)N(C)C)n(C5CCCC5)c4n3)nc2)CC1
25 | 8.00 | 7.28 | 10 to 100 | CN(C)C(=O)c1cc2cnc(Nc3ccc(CNC(=O)CCCCCCC(=O)NO)cc3)nc2n1C1CCCC1
26 | 8.02 | 9.28 | 10 to 100 | CN(C)C(=O)c1cc2cnc(Nc3ccc(C(=O)NCCCCCC(=O)NO)cc3)nc2n1C1CCCC1
27 | 8.08 | 8.80 | 10 to 100 | CN(C)C(=O)c1cc2cnc(Nc3ccc(NC(=O)NCCCCCC(=O)NO)cc3)nc2n1C1CCCC1
28 | 7.92 | 8.85 | 10 to 100 | CN(C)C(=O)c1cc2cnc(Nc3ccc(C(=O)NCCCCCCC(=O)NO)cc3)nc2n1C1CCCC1
29 | 6.91 |  |  | CCCCCCCCC(=O)Nc1ccc(Nc2ncc3cc(C(=O)N(C)C)n(C4CCCC4)c3n2)cc1
30 | 8.00 | < 5.30 | 10 to 100 | CN(C)C(=O)c1cc2cnc(Nc3ccc(NC(=O)CCCCCCCO)cc3)nc2n1C1CCCC1
31 | < 5.30 |  |  | COC(=O)CCCCCCC(=O)Nc1ccccc1Nc1ncc2cc(C(=O)N(C)C)n(C3CCCC3)c2n1
32 | 8.00 | 9.08 | 10 to 100 | CN(C)C(=O)c1cc2cnc(Nc3ccc(NC(=O)CCCCCC(=O)NO)cc3)nc2n1C1CCCC1
33 | 8.32 |  |  | COC(=O)CCCCC(=O)Nc1ccc(Nc2ncc3cc(C(=O)N(C)C)n(C4CCCC4)c3n2)cc1
34 | 6.07 | < 5.30 | 10 to 100 | COC(=O)CCCCCCC(=O)Nc1ccc(Nc2ncc3nnn(C4CCCC4)c3n2)cc1
35 | 5.94 | 6.36 | 10 to 100 | O=C(CCCCCCC(=O)Nc1ccc(Nc2ncc3nnn(C4CCCC4)c3n2)cc1)NO
36 | 8.00 |  |  | COC(=O)CCCCCC(=O)Nc1ccc(Nc2ncc3cc(C(=O)N(C)C)n(C4CCCC4)c3n2)cc1
37 | 8.09 | 8.52 | 10 to 100 | CN(C)C(=O)c1cc2cnc(Nc3ccc(NC(=O)CCCCCCCC(=O)NO)cc3)nc2n1C1CCCC1
38 | 7.74 | < 5.30 | 10 to 100 | CN(C)C(=O)c1cc2cnc(Nc3ccc(NC(=O)CCCCCCC(=O)O)cc3)nc2n1C1CCCC1
39 | 8.20 |  |  | COC(=O)CCCCNC(=O)c1ccc(Nc2ncc3cc(C(=O)N(C)C)n(C4CCCC4)c3n2)cc1
40 | 7.33 | < 5.30 | 10 to 100 | COC(=O)CCCCCCC(=O)Nc1ccc(Nc2ncc3cc(C(=O)N(C)C)n(C4CCCC4)c3n2)nc1
41 | 7.64 |  |  | COC(=O)CCCCCNC(=O)Nc1ccc(Nc2ncc3cc(C(=O)N(C)C)n(C4CCCC4)c3n2)cc1
